Series [1] concerns Hep G2 cells. Put plainly: Apolipoprotein B secretion inhibitory activity (sandwich ELISA of culture supernatant). It counts as cell-based. The conditions noted are these: Homo sapiens, HepG2, test compound 1 μM. As to the method: Test 2: Apolipoprotein B Secretion Inhibitory Activity
The apolipoprotein B secretion inhibitory activity of compounds according to the present invention was examined using human hepatoma-derived cell line, Hep G2.
The test was carried out by partially modifying the method of Nagata et al. (Biochem. Pharmacol., 40, 843 (1990)) and the method of Furukawa et al. (J. Biol. Chem., 267, 22630 (1992)). Specifically, Hep G2 cells were cultivated in a Dulbecco modified Eagles's medium (DMEM) containing 10% fetal calf serum (FCS), 100 units/ml penicillin, and 100 μg/ml streptomycin on a 96-well plate. Thereafter, the medium was replaced by DMEM containing 1% bovine serum albumin. At the same time, the test compound was added to a final concentration of 1 μM, followed by cultivation, or cultivation was carried out without the addition of the test compound. Three hours after the replacement of the medium, acetic acid was added to a final concentration of 1 mM, and cultivation was continued for additional 4 hours. The amount of apolipoprotein B secreted in the supernatant of the culture thus obtained was determined by the sandwich ELISA method. Goat anti-human apolipoprotein B polyclonal antibody (CHEMICON) was used as the primary antibody, and mouse anti-human apolipoprotein B monoclonal antibody peroxydase conjugate (BIOSYS) was used as the secondary antibody.
The inhibition (%) of secretion of apolipoprotein B was calculated by the following equation.
Inhibition (%) of secretion of apolipoprotein B={1−(amount of apolipoprotein B secreted in the presence of test compound)/(amount of apolipoprotein B secreted in the absence of test compound)}×100
A general note: An ELISA detects its analyte on a solid surface through an enzyme-linked reagent.

Series [2] concerns Hep G2 cells. The series is described as follows: Triglyceride biosynthesis inhibitory activity (14C-acetic acid incorporation into triglyceride). It counts as cell-based. The settings on record: Homo sapiens, HepG2, test compound 1 μM. As to the method:
Test 1: Triglyceride Biosynthesis Inhibitory Activity
The triglyceride biosynthesis inhibitory activity of compounds according to the present invention was examined using human hepatoma-derived cell line, Hep G2.
The test was carried out by partially modifying the method of Nagata et al. (Biochem. Pharmacol., 40, 843 (1990)) and the method of Furukawa et al. (J. Biol. Chem., 267, 22630 (1992)). Specifically, Hep G2 cells were cultivated in a Dulbecco modified Eagles's medium (DMEM) containing 10% fetal calf serum (FCS), 100 units/ml penicillin, and 100 μg/ml streptomycin on a 96-well plate. Thereafter, the medium was replaced by DMEM containing 1% bovine serum albumin. At the same time, the test compound was added to a final concentration of 1 μM, followed by cultivation, or cultivation was carried out without the addition of the test compound. Three hours after the replacement of the medium, ^14C-acetic acid was added to a final concentration of 1 mM, and cultivation was continued for additional 4 hours. After the cells were washed with a phosphate buffer (pH 7.5) containing 150 mM sodium chloride, lipids within the cells were extracted with n-butanol. After the extraction, the extract was evaporated to dryness under a nitrogen stream. The solid obtained by the evaporation to dryness was dissolved in a minor amount of chloroform. The solution was developed by thin layer chromatography (development solvent: petroleum ether/diethyl ether/acetic acid=90/15/3) to separate a ^14C-triglyceride fraction, and the amount of ^14C-triglyceride produced was then determined with a liquid scintillation counter (Beckman, LS-6500).
The inhibition (%) of biosynthesis of triglyceride was calculated by the following equation.
Inhibition of biosynthesis of triglyceride (%)={1−(amount of ^14C-triglyceride produced in the presence of test compound)/(amount of ^14C-triglyceride produced in the absence of test compound)}×100

Another series relates to ddY mice (male). The series is described as follows: Acute toxicity test in mice. It counts as in vivo. The settings on record: orally administered 200 mg/kg, observed for 8 days. The method, then:
(§1) Test 3: Acute Toxicity Test
(§2) For the compound prepared in Example 104, an acute toxicity test was carried out using mice and rats according to a conventional method.

The test system of a further series is wistar rats (male). Put plainly: Acute toxicity test in rats. The conditions noted are these: orally administered 200 mg/kg, observed for 8 days. It counts as in vivo. As to the method: as §1, §2

Structures are written as SMILES. Where only a bound is given, the exact number is not on record here.

In the case of `CC(C)N(C(=O)c1cccc(N2CCN(CCC(c3ccccc3)c3ccccc3)CC2)c1)C(C)C` [Example 5, N,N-Diisopropyl-3-[4-(3,3-diphenyl-1-propyl)piperazin-1-yl]benzamide], the inhibition at 1 µM was found to be 92% with Hep G2 cells [1] and 8% in the series on Hep G2 cells [2].

In the case of `O=c1c2cc(N3CCN(CCC(c4ccccc4)c4ccccc4)CC3)ccc2cnn1Cc1ccccc1` [Example 149, 2-Benzyl-7-[4-(3,3-diphenylpropyl)piperazin-1-yl]-2H-phthalazin-1-one], the inhibition at 1 µM with Hep G2 cells [1] is 70%; with Hep G2 cells [2], 74%.

On to `O=C1c2cc(N3CCN(CCCCC4(C(=O)NCC(F)(F)F)c5ccccc5-c5ccccc54)CC3)ccc2CCN1CC1CCCCO1` (centres unmarked) [Example 99, 2-(Tetrahydropyran-2-yl)methyl-7-[4-[4-[9-(2,2,2-trifluoroethylcarbamoyl)-9H-fluoren-9-yl]butyl]piperazin-1-yl]-3,4-dihydro-2H-isoquinolin-1-one], for which the inhibition at 1 µM with Hep G2 cells [1] is not below 80%; in the series on Hep G2 cells [2], 11%.

For the molecule `O=C1c2cc(N3CCN(CCC(c4ccccc4)c4ccccc4)CC3)ncc2CCN1Cc1ccccc1` [Example 104, 2-Benzyl-7-[4-(3,3-diphenyl-1-propyl)piperazin-1-yl]-3,4-dihydro-2H-2,6-naphthyridin-1-one], the “Change in general conditions, such as weight, in acute toxicity test” value is listed as “any change in general conditions, such as a change in weight, did not occur” in the series with ddY mice (male) and “any change in general conditions, such as a change in weight, did not occur” in the series on wistar rats (male). The “Survival in acute toxicity test” value in the series on ddY mice (male) and with wistar rats (male) was “all the animals survived” in each case. Further, the inhibition at 1 µM was 84% in the series on Hep G2 cells [1] and 83% in the series on Hep G2 cells [2].

Take `C=CCN(CC(F)(F)F)C(=O)C1(CCCCN2CCN(c3ccc4c(c3)C(=O)N(Cc3ccccc3)CC4)CC2)c2ccccc2-c2ccccc21` [Example 102, 7-[4-[4-[9-[Allyl-(2,2,2-trifluoroethyl)carbamoyl]-9H-fluoren-9-yl]butyl]piperazin-1-yl]-2-benzyl-3,4-dihydro-2H-isoquinolin-1-one]: the inhibition at 1 µM in the series with Hep G2 cells [1] was 80%; in the series on Hep G2 cells [2], 89%.

For orientation: inhibition means the drop in the measured response relative to a control, in per cent. High values mean strong suppression, low ones little suppression.

The record behind these values is patent US6777414B1, “Nitrogen-containing heterocyclic compounds and benamide compounds and drugs containing the same” (Meiji Seika Kaisha, Ltd., priority 1999, dated 2004).
